Results published in publication PMC8692498, “Synthesis and multifaceted pharmacological activity of novel quinazoline NHE-1 inhibitors” (Scientific Reports, 2021).
“Also recorded” adds a separate entry of the source.

Legend:
[1] = test system: primary peritoneal macrophages of C57BL/6J mice; experiment: Nitric oxide synthesis (nitrite, Griess reagent) in LPS-stimulated peritoneal macrophages; assay type: cell-based; conditions: 100 μM
Procedure: (§1) Peritoneal macrophages (PM) were isolated from the peritoneal exudate of 30 male C57bl/6j mice. To accumulate PM, 1 ml of 3% peptone solution was injected intraperitoneally. After 3 days the mice were euthanized by cervical dislocation. Cells of peritoneal exudate were obtained by aseptically washing the abdominal cavity with 5 ml of sterile Hanks’s solution (+ 4-6 °C) without calcium and magnesium ions. The total number and viability of cells were assessed in a Goryaev counting chamber (Russia) with a 0.4% trypan blue staining (Sigma-Aldrich, USA). The cell concentration was adjusted to 1.0×10^6 cells/ml in DMEM (Gibco) supplemented with 2 mM L-glutamine (Gibco), 10% heat-inactivated fetal bovine serum (BioClot, Germany), 100 U/ml penicillin and […] streptomycin (Gibco) and plated 200 μl/well in 96-well transparent plates (SPL Life Sciences Co., Ltd., Korea). It was left for 2 h at 37°C in a humidified atmosphere with 5% CO2, after which the wells were washed to remove non-adherent cells. After 24 hours of incubation, 20 μl of the supernatant was removed and 20 μl of solutions of test compounds were added 30 min before E. coli O127:B8 LPS (100 ng/ml final concentration). Experiments were run in 3 independent replicates.
The accumulation of nitrite anion (a stable end product of NO decomposition produced by iNOS) in supernatants was determined using a standard Griess reagent. Briefly, 50 μl of supernatants collected 22 hours after incubation of PM with test and control compounds were mixed with 50 μl of 1% sulfonamide in 2.5% H3PO4 and 50 μl of 0.1% N-(1-naphthyl) ethylenediamine in 2,5% H3PO4. After incubation at 23 °C for 10 min in an orbital shaker, the optical density was determined at a wavelength of 550 nm with a microplate reader Infinite M200 PRO (Tecan, Austria).

intraocular pressure = experiment: Intraocular pressure studies in outbred rats (TonoVet); assay type: in vivo
Procedure: The experiments were carried out on 75 adult outbred rats of both sexes, which were kept in standard cages at a temperature of 25 °C and a standard light regime. Animals were randomly assigned to the control and experimental groups (n = 5). Before the start of the experiment, the rats had free access to food and water. Intraocular pressure (IOP) was measured with a TonoVet device (Finland)[44] which measures IOP with a short touch of a small disposable tip in the center of the cornea, no corneal anesthesia is required. The study was carried out according to the published method. One drop (50 μl) of a test 0.4% solution of the compound was instilled into the right eye, and deionized water was added to the left eye. IOP was measured in both eyes. The left eye, in turn, serves to assess the possible systemic exposure of the test compounds. […] IOP-lowering activity was assessed as the maximum decrease in IOP from the initial values. At 9:00 AM, baseline IOP was measured in animals of all groups. Experiments were run in 5 independent replicates.

ICR mice = experiment: Tail suspension test (antidepressant activity); assay type: in vivo; conditions: intragastrically 30 min before test, dose equimolar to 2.6 mg/kg amiloride
Procedure: The experiment was carried out on 36 male ICR mice weighing 22-25 g, divided into groups of 6 animals each under room lighting (300 lux). […] In experiments, test substances were administered intragastrically 30 min before the start of the test. Experimental groups received test compounds in an equimolar dose to the comparison drug amiloride. Animals of the remaining groups were treated with 2.6 mg/kg amiloride, 10 mg/kg amitriptyline, or 8 mg/kg imipramine. Distilled water was administered to the control group. The time of immobilization of the animals was recorded.

[2] = Cytotoxicity study (LDH activity in the medium) in peritoneal macrophages; assay type: cell-based; conditions: male, C57BL/6J, mouse, primary peritoneal macrophages; murine peritoneal macrophages, LDH
Procedure: as §1
(§2) The activity of lactate dehydrogenase (LDH) in a cell culture medium served as a marker of membrane permeability and cell death. Aliquotes of supernatants were taken after 24 h of inoculation with test compounds, mixed with 250 μl of […] NADH solution in 54 mM phosphate buffered saline (pH 7.5). Then, 25 μl of a 6.48 mM pyruvate solution was added to the mixture. The optical density was followed at a wavelength of 340 nm for 20 min. Conversion of optical density into cell viability was carried out according to a standard curve (DMSO-treated cells as 100% and 0.01% Triton X-100-treated cells as 0% viable cells).

[3] = test system: primary peritoneal macrophages of C57BL/6J mice; experiment: as above; assay type: cell-based; conditions: 100 μM, peritoneal macrophages
Procedure: as §1, §2

NHE-1 = molecular target: T1, NHE-1 (Oryctolagus cuniculus, UniProt P23791); experiment: NHE-1 inhibition assay on rabbit platelets (platelet shape change after acidification with sodium propionate, laser aggregometer); assay type: cell-based
T1 construct: endogenous in cells; host or cells: rabbit platelets in platelet-rich plasma (male rabbits)
T1 sequence (P23791 whole entry): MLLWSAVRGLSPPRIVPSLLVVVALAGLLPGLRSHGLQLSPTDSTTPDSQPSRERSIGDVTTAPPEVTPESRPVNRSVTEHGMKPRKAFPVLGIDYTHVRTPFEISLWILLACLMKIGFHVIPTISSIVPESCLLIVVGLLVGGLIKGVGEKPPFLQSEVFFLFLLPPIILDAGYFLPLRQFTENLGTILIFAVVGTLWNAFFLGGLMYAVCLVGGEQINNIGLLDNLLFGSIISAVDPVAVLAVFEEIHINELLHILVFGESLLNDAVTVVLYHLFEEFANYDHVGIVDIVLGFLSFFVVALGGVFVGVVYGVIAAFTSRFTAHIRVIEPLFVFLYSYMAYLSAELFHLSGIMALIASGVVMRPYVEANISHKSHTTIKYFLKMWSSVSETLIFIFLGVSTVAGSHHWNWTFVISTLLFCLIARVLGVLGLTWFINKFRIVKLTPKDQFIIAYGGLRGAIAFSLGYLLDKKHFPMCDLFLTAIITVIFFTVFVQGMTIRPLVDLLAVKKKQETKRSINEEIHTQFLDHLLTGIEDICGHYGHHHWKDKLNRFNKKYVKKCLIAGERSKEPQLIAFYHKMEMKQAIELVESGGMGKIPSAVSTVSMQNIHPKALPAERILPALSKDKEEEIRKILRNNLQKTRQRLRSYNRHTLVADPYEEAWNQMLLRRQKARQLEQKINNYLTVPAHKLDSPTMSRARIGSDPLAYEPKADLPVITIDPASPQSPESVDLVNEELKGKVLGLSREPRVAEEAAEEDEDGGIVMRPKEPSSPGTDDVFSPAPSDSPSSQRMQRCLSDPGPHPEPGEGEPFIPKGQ
Procedure: Evaluation of NHE-1 inhibition was carried out on rabbit platelets by the known method[39],[40]. The experiments were carried out on 15 male rabbits weighing 3.0-4.0 kg. Platelet-rich plasma (PRP) was obtained by centrifuging blood with 3.8% sodium citrate (1:10) at 1000 rpm for 12 min (Multi centrifuge CM 6M, Latvia). Platelet shapeshifting due to acidification was followed with a laser aggregometer BIOLA-220 LA (Russia). Test compounds (10 μl, 10 nM final concentration) were added to 200 μl of PRP 5 min in a cuvette before the addition of sodium propionate solution, incubated with constant stirring using a magnetic stirrer (800 rpm, 37 °C). To control samples for NHE-1 activation, a buffer solution containing sodium propionate was added to 200 μL of PRP (600 μL, 135 mM sodium propionate, 20 mM HEPES, 1 mM CaCI2, 1 mM MgCI2, 10 mM glucose; pH 6.7). The change in light transmission at pH 7.4, 37 °C was monitored in a Krebs solution (600 μL, 120 mM NaCl, 4.8 mM KCl, 1.2 mM KH2PO4, 2.5 mM MgSO4, 25 mM NaHCO3, 2.6 mM CaCl2, 5.4 mM glucose; pH 7.4). Test compounds were added to a final concentration of 10 nM to the cuvette into 200 μl of PRP 5 min before adding the sodium propionate solution, incubated with constant stirring using a magnetic stirrer (800 rpm, 37 °C). NHE-1 inhibitors zoniporide, rimeporide, amiloride were used as reference drugs. Assays were run in 6 independent series.

- inhibition at 0.01 µM (NHE-1; 10 nM, rabbit platelet-rich plasma, decimal commas, read-out: NHE-1 inhibition at 10 nM, m ± SD, n = 6 (%)): 57.8%
- NHE-1 inhibitory activity (in words) (NHE-1; compared with reference drugs): more potent and comparable to zoniporide
SMILES: Cn1c(=O)n(Cc2nnc(N)[nH]2)c(=O)c2ccccc21 [Compound 3e, 3-[(5-Amino-4H-1,2,4-triazol-3-yl)methyl]-1-methylquinazoline-2,4(1H,3H)-dione]
- inhibition of the synthesis of nitric oxide [1]: statistically significantly inhibit
- IOP-lowering effect size (intraocular pressure; compared with zoniporide and timolol): negligible
- IOP-lowering activity (intraocular pressure; one drop (50 μl) of 0.4% solution instilled): statistically significant activity
- antidepressant activity (ICR mice): antidepressant activity similar to amiloride; also recorded: antidepressant activity comparable with amiloride
- CC50 at 24 h [2]: 138 µM
- effect on cell viability [3]: absence of a statistically significant effect on cell viability
